# Experimental data as given in US20080221086A1, “Novel Inhibitors of Glutaminyl Cyclase” (PROBIODRUG AG, priority 2006, published 2008).
# Target: hQC (Homo sapiens, UniProt Q16769)
# Experiment: Fluorometric assay of glutaminyl cyclase (QC) inhibition, H-Gln-βNA or H-Gln-AMC substrate
# Format: biochemical
# Details: read-out: IC50
# Outline: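 Ki values were obtained by fitting progress curves to a competitive-inhibition equation, and the rapid screen used 4 mM inhibitor with substrate at 1 KM. Both readouts coupled pyroglutamyl aminopeptidase at pH 8.0 and 30° C: H-Gln-βNA at 0.2 mM (ex/em 320/410 nm) or H-Gln-AMC (380/460 nm).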
# Sequence of hQC (Q16769 29-361): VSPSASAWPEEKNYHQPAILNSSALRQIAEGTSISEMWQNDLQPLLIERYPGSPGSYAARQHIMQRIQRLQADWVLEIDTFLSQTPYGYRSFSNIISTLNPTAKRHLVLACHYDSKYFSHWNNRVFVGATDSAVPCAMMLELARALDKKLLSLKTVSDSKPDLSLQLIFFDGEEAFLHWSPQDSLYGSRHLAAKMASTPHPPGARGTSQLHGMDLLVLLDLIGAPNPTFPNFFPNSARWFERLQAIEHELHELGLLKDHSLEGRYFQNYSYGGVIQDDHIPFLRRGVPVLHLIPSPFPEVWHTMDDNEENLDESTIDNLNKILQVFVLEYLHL
row,Structure (SMILES),IC50
1,"S=C1N/C(=N\C2CCCCC2)C(c2cc3c(cc2Br)OCO3)N1c1ccc2nc[nH]c2c1 (centres unmarked) [Compound 266, 1-(3H-Benzoimidazol-5-yl)-5-(6-bromo-benzo1,3dioxol-5-yl)-4-cyclohexylimino-imidazolidine-2-thione]",8.5 µM
2,"S=C1N/C(=N\C2CCCc3ccccc32)C(c2ccccc2Cl)N1c1ccc2[nH]cnc2c1 (centres unmarked) [Compound 278, 1-(1H-Benzoimidazol-5-yl)-5-(2-chloro-phenyl)-4-1,2,3,4-tetrahydro-napthalen-1-ylimino-imidazolidine-2-thione]",6.7 µM
3,"O=C1N/C(=N\c2ccc3c(c2)OCCO3)C(c2ccccc2Cl)N1CCCn1ccnc1 (centres unmarked) [Compound 34, 5-(2-Chloro-phenyl)-4-2,3-dihydro-benzo1,4dioxin-6-ylimino-1-(3-imidazol-1-yl-propyl)-imidazolidin-2-one]",4 µM
4,"O=C1N/C(=N/CCc2c[nH]c3ccccc23)C(c2ccc(Cl)c(F)c2)N1CCCn1ccnc1 (centres unmarked) [Compound 54, 5-(4-Chloro-3-fluoro-phenyl)-1-(3-imidazol-1-yl-propyl)-4-2-(1H-indol-3-yl)-ethylimino-imidazolidin-2-one]",3.1 µM
5,"O=C1N/C(=N\CCc2cccs2)C(c2cccc(F)c2F)N1CCCn1ccnc1 (centres unmarked) [Compound 40, 5-(2,3-Difluoro-phenyl)-1-(3-imidazol-1-yl-propyl)-4-2-thiophen-2-yl-ethylimino-imidazolidin-2-one]",4.9 µM
6,"CC1=CC(C)C(C2/C(=N/C(C)(C)CC(C)(C)C)NC(=S)N2c2ccc3nc[nH]c3c2)CC1 (centres unmarked) [Compound 200, 1-(3H-Benzoimidazol-5-yl)-5-(2,4-dimethyl-cyclohex-3-enyl)-4-1,1,3,3-tetramethyl-butylimino-imidazolidine-2-thione]",5.8 µM
7,"CN(C)c1ccc(C2/C(=N\Cn3nnc4ccccc43)NC(=S)N2c2ccc3[nH]cnc3c2)cc1 (centres unmarked) [Compound 280, 1-(1H-Benzoimidazol-5-yl)-4-benzotriazol-1-ylmethylimino-5-(4-dimethylamino-phenyl)-imidazolidine-2-thione]",1.3 µM
8,"O=C1N/C(=N/CCc2c[nH]c3ccccc23)C(c2ccc(F)cc2)N1CCCn1ccnc1 (centres unmarked) [Compound 63, 5-(4-Fluoro-phenyl)-1-(3-imidazol-1-yl-propyl)-4-2-(1H-indol-3-yl)-ethylimino-imidazolidin-2-one]",3.1 µM
9,"CCCCC1C(=NC(C)c2ccccc2)NC(=O)N1CCCn1ccnc1 (centres unmarked) [Compound 11, 5-Butyl-1-(3-imidazol-1-yl-propyl)-4-1-phenyl-ethylimino-imidazolidin-2-one]",8.7 µM
10,"CCCCC1/C(=N/Cc2cc(OC)c(OC)c(OC)c2)NC(=O)N1CCCn1ccnc1 (centres unmarked) [Compound 27, 5-Butyl-1-(3-imidazol-1-yl-propyl)-4-3,4,5-trimethoxy-benzylimino-imidazolidin-2-one]",5.8 µM
11,"O=C1N/C(=N\C(c2ccccc2)c2ccccc2)C(c2ccccc2F)N1CCCn1ccnc1 (centres unmarked) [Compound 87, 4-Benzhydrylimino-5-(2-fluoro-phenyl)-1-(3-imidazol-1-yl-propyl)-imidazolidin-2-one]",4 µM

# Now from value to compound:
row,IC50,Structure (SMILES)
1,5.8 µM,"O=C(C/N=C1\NC(=O)N(c2ccc3[nH]cnc3c2)C1c1ccccc1Cl)N1CCSCC1 (centres unmarked) [Compound 135, 1-(1H-Benzoimidazol-5-yl)-5-(2-chloro-phenyl)-4-2-oxo-2-thiomorpholin-4-yl-ethylimino-imidazolidin-2-one]"
2,5.8 µM,"Cc1ccc(C2/C(=N/C(C)(C)CC(C)(C)C)NC(=O)N2c2ccc3nc[nH]c3c2)cc1 (centres unmarked) [Compound 293, 1-(3H-Benzoimidazol-5-yl)-4,1,1,3,3-tetramethyl-butylimino-5-p-tolyl-imidazolidin-2-one]"
3,7.6 µM,"O=C1N/C(=N\C2CCCC2)C(c2coc3ccccc3c2=O)N1c1ccc2[nH]cnc2c1 (centres unmarked) [Compound 246, 1-(1H-Benzoimidazol-5-yl)-4-cyclopentylimino-5-(4-oxo-4H-chromen-3-yl)-imidazolidin-2-one]"
4,3.1 µM,"O=C1N/C(=N/Cn2nnc3ccccc32)C(c2cc(F)cc(F)c2)N1c1ccc2[nH]cnc2c1 (centres unmarked) [Compound 148, 1-(1H-Benzoimidazol-5-yl)-4-benzotriazol-1-ylmethylimino-5-(3,5-difluoro-phenyl)-imidazolidin-2-one]"
5,0.004 µM,"O=C1N/C(=N\C2CCCC2)C(c2cc(Br)cc(Br)c2)N1c1ccc2[nH]cnc2c1 (centres unmarked) [Compound 186, 1-(1H-Benzoimidazol-5-yl)-4-cyclopentylimino-5-(3,5-dibromo-phenyl)-imidazolidin-2-one]"
6,7.6 µM,"Cc1cccc(C2/C(=N/c3cc(Cl)ccc3Cl)NC(=S)N2c2ccc3[nH]cnc3c2)c1 (centres unmarked) [Compound 299, 1-(1H-Benzoimidazol-5-yl)-4-2,5-dichloro-phenylimino-5-m-tolyl-imidazolidine-2-thione]"
7,0.004 µM,"Cc1ccc2occ(C3/C(=N/C4CCc5ccccc54)NC(=O)N3c3ccc4[nH]cnc4c3)c(=O)c2c1 (centres unmarked) [Compound 213, 1-(1H-Benzoimidazol-5-yl)-4-indan-1-ylimino-5-(6-methyl-4-oxo-4H-chromen-3-yl)-imidazolidin-2-one]"
8,9.4 µM,"CC(CC1/C(=N/C2CCCc3ccccc32)NC(=O)N1c1ccc2[nH]cnc2c1)CC(C)(C)C (centres unmarked) [Compound 197, 1-(1H-Benzoimidazol-5-yl)-4-1,2,3,4-tetrahydro-naphthalen-1-ylimino-5-(2,4,4-trimethyl-pentyl)-imidazolidin-2-one]"
9,6.7 µM,"S=C1N/C(=N\c2cc(Cl)ccc2Cl)C(c2ccc(Cl)cc2)N1c1ccc2[nH]cnc2c1 (centres unmarked) [Compound 194, 1-(1H-Benzoimidazol-5-yl)-5-(4-chloro-phenyl)-4-2,5-dichloro-phenylimino-imidazolidine-2-thione]"
10,0.004 µM,"O=C1N/C(=N/CCCN2CCOCC2)C(c2ccc3[nH]ccc3c2)N1c1ccc2[nH]cnc2c1 (centres unmarked) [Compound 163, 1-(1H-Benzoimidazol-5-yl)-5-(1H-indol-5-yl)-4-3-morpholin-4-yl-propylimino-imidazolidin-2-one]"
11,0.4 µM,"Cc1nc[nH]c1C1/C(=N/C2CCc3ccccc32)NC(=O)N1c1ccc2nc[nH]c2c1 (centres unmarked) [Compound 257, 3-(3H-Benzoimidazol-5-yl)-5-indan-1-ylimino-5′-methyl-1,3,4,5-tetrahydro-3′H-4,4′biimidazolyl-2-one]"
12,2.2 µM,"CN1CCCN(C(=O)C/N=C2/NC(=O)N(c3ccc4[nH]cnc4c3)C2c2ccc3[nH]ccc3c2)CC1 (centres unmarked) [Compound 307, 1-(1H-Benzoimidazol-5-yl)-5-(1H-indol-5-yl)-4-2-(4-methyl-1,4diazepan-1-yl)-2-oxo-ethylimino-imidazolidin-2-one]"
13,0.004 µM,"CSc1ccc(C2/C(=N\Cn3nnc4ccccc43)NC(=S)N2c2ccc3[nH]cnc3c2)cc1 (centres unmarked) [Compound 151, 1-(1H-Benzoimidazol-5-yl)-4-benzotriazol-1-ylmethylimino-5-(4-methylsulfanyl-phenyl)-imidazolidine-2-thione]"
14,1.3 µM,"O=C1N/C(=N/C2CC2)C(c2ccc(Cl)c(F)c2)N1c1ccc2[nH]cnc2c1 (centres unmarked) [Compound 117, 1-(1H-Benzoimidazol-5-yl)-5-(4-chloro-3-fluoro-phenyl)-4-cyclopropylimino-imidazolidin-2-one]"
15,1.3 µM,"O=C(CN=C1NC(=O)N(c2ccc3[nH]cnc3c2)C1c1ccc2[nH]ccc2c1)N1CCC(O)C1 (centres unmarked) [Compound 222, 1-(1H-Benzoimidazol-5-yl)-4-2-(3-hydroxy-pyrrolidin-1-yl)-2-oxo-ethylimino-5-(1H-indol-5-yl)-imidazolidin-2-one]"
